{
  "source": "patent US6500472B2",
  "about": "“Folic acid and/or vitamin B12-lactoferrin complex” (Snow Brand Milk Products Co., Ltd., priority 2000, dated 2002)",
  "key": {"[1]": {"assay": "Vitamin B12 reduction after sterilization at 90 C and storage at 35 C for 2 months", "format": "physicochemical", "details": "sterilized 90 C 30 min, stored 35 C 2 months", "protocol": "[…] The resultant admixture was subjected to dialysis using a dialysis membrane (cut-off molecular weight: 5 kDa) against deionized water and then to freeze-drying to obtain a vitamin B12-lactoferrin complex in which 57 molecules of vitamin B12 were held per one molecule of lactoferrin. […] […] Portions (5 ml) of each sample solution were dispensed into heat-resistant glass bottles and sealed, sterilized at 90 C for 30 minutes and then stored at 35 C for 2 months. The reduction rates of vitamin B12 were measured. The amount of vitamin B12 was measured in the same manner as in Test Example 5."}, "lactoferrin [2]": {"molecular_target": "T1, lactoferrin (Bos taurus, UniProt P24627)", "T1 sequence (P24627 20-708)": "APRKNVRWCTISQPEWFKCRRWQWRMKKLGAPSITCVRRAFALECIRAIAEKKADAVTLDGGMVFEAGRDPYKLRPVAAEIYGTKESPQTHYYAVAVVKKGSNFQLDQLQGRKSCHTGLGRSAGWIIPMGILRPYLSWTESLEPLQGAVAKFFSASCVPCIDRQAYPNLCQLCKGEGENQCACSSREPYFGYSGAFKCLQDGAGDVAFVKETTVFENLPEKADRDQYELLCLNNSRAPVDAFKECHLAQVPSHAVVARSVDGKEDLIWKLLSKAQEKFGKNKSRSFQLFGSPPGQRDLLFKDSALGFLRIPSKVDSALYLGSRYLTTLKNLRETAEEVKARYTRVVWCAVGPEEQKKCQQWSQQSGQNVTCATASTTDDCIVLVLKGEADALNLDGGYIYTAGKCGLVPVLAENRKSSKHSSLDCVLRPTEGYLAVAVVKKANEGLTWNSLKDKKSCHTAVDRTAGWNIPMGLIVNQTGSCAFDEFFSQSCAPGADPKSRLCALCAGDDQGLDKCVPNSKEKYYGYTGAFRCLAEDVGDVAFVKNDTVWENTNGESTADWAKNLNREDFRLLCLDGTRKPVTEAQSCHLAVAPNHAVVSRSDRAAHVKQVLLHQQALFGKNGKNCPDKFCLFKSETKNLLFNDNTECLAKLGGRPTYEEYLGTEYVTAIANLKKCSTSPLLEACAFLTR", "assay": "Vitamin B12 held by lactoferrin (UF membrane separation, method using microorganisms)", "format": "binding", "details": "for Amount of vitamin B12 held per 1 μmol of lactoferrin: imidazole buffer pH 6.5", "protocol": "The resultant solution was treated with a UF membrane (cut-off molecular weight: 5 kDa; a product of Millipore Corp.) to separate it into the permeate and the retentate. Further, a 50 mM imidazole buffer solution (pH 6.5) was added to the remaining retentate to recover the permeate. This process was repeated four times and the resulting permeate was diluted […] to recover whole free vitamin B12 into the permeate. Further, the pH of the vitamin B12-lactoferrin complex sample in the retentate was adjusted to 2.0, 2 mg of pepsin (a product of Sigma) per 1 ml sample were added, and proteolysis was carried out at 37 C for 60 minutes, after which the pH was further adjusted to 7.5, 2 mg of trypsin (a product of Sigma) per 1 ml sample were added, and proteolysis was carried out at 37 C for 120 minutes. After heating, the supernatant was recovered by centrifugation at 15,000 G. The amount of vitamin B12 was measured by a method using microorganisms (Encyclopedia of Vitamins, the Japanese Association of Vitaminology, Asakura Shoten, p. 501, 1996). Further, a calibration curve was obtained by using cyanocobalmin (a product of Sigma)."}, "[3]": {"details": "cited from earlier work"}, "[4]": {"assay": "Stability of folic acid in citric acid buffer pH 2.5 after sterilization and storage at 37 C", "format": "physicochemical", "protocol": "Folic acid and the folic acid-lactoferrin complex used in Test Example 2 were each added to a 10 mM citric acid buffer solution (pH 2.5) at a folic acid concentration of 0.25 μmol/10 ml. Next, 50 ml portions of the solutions were dispensed in brown bottles, sterilized at 90 C for 30 minutes and then stored at 37 C. The amount of folic acid was measured in the same manner as in Test Example 2."}, "[5]": {"assay": "Turbidity at 660 nm / solubility in deionized water", "format": "physicochemical", "protocol": "Folic acid and the folic acid-lactoferrin complex used in Test Example 2 were each added to deionized water at a folic acid concentration of 0.1 to 10 μmol/10 ml to measure turbidity at 660 nm."}, "lactoferrin [6]": {"molecular_target": "T1, lactoferrin", "assay": "Folic acid held by lactoferrin (UF membrane separation, free folic acid by optical density at 362 nm)", "format": "binding", "details": "for Amount of folic acid held per 1 μmol of lactoferrin: 50 mM sodium bicarbonate pH 8.5", "protocol": "A lactoferrin solution at a concentration of 1 μmol/20 ml was prepared by dissolving lactoferrin in a 50 mM sodium bicarbonate aqueous solution (pH 8.5), and folic acid was added at a concentration of 10 to 300 μmol/20 ml. The resultant admixture was treated with an ultrafiltration (UF) membrane (cut-off molecular weight: 5 kDa; a product of Millipore Corp.) to separate it into the permeate and the retentate. Further, a 50 mM sodium bicarbonate aqueous solution (pH 8.5) was added to the remaining retentate to recover the permeate. This process was repeated four times and the resulting permeate was diluted […] to recover the whole free folic acid into the permeate. The amount of binding-type folic acid remaining in the retentate was calculated from the amount of free folic acid contained in the recovered permeate obtained by measuring optical density at 362 nm. Upon measuring the optical density for folic acid, it was confirmed that no protein was eluted into the permeate and no inhibiting substance derived from proteins existed. Further, a folic acid aqueous solution without protein was simultaneously subjected to the UF membrane treatment to prepare a control sample. These operations and measurements were performed in the dark to prevent decomposition of folic acid. No decomposition of folic acid during the measurement was confirmed by the optical density measurement."}, "[7]": {"assay": "Light radiation test (40-watt fluorescent lamp), folic acid measured by method using microorganisms", "format": "physicochemical", "details": "phosphate buffer pH 6.5", "protocol": "A light radiation test was carried out with a folic acid-lactoferrin complex. Namely, to a 1 μmol lactoferrin solution which was prepared by dissolving lactoferrin into 50 ml of a 50 mM sodium bicarbonate aqueous solution (pH 8.5) was added folic acid to make a 100 μmol solution. The resultant admixture was subjected to dialysis using a dialysis membrane (cut-off molecular weight: 10 kDa) against a 5 mM phosphate buffer solution (pH 6.5) and then to freeze-drying to obtain a folic acid-lactoferrin complex. The resulting folic acid-lactoferrin complex powder was dissolved in a 50 mM phosphoric acid buffer solution (pH 6.5) at a concentration of 3 mg/100 ml. Separately, folic acid (a product of Sigma) was dissolved in a 50 mM phosphoric acid buffer solution (pH 6.5) at a concentration of 0.8 mg/100 ml. Each sample solution (5 ml) was dispensed into a transparent polyethylene container, water was added to a depth of 5 mm, and the solution was subjected to radiation with a 40-watt fluorescent lump from a height of 30 mm, after which the amount of folic acid was measured by a method using microorganisms. Namely, the pH of the folic acid-lactoferrin complex sample was adjusted to 2.0, 2 mg of pepsin (a product of Sigma) per 1 ml sample were added, and proteolysis was carried out at 37 C for 120 minutes, after which the pH was further adjusted to 7.5, 2 mg of trypsin (a product of Sigma) per 1 ml sample were added, and proteolysis was carried out at 37 C for 120 minutes. After deaeration, the reaction solution was heated for 5 minutes and centrifuged at 15,000 G to recover the supernatant. The amount of folic acid was measured by a method using microorganisms (Davis, R. E., D. J. Nicol & A. Kelly, J. Clin. Path., vol. 23, pp. 47-53, 1970). Further, a calibration curve was obtained by using folic acid (a product of Sigma). These operations and measurements were carried out in the dark except for the fluorescent radiation."}, "[8]": {"details": "Folic acid concentration 0.1 μmol/10 ml in deionized water"}, "[9]": {"details": "Folic acid concentration 1.0 μmol/10 ml in deionized water"}, "[10]": {"details": "Folic acid concentration 10 μmol/10 ml in deionized water"}},
  "note": "Like-named read-outs stand apart in the source and are kept apart here.",
  "data": [
    {"molecule": "Vitamin B12", "values": [
      {"measurement": "Vitamin B12 reduction rate", "setting": "[1]; pH 3.0", "value": 48, "unit": "%"},
      {"measurement": "Vitamin B12 reduction rate", "setting": "[1]; pH 7.5", "value": 8, "unit": "%"},
      {"measurement": "Amount of vitamin B12 held per 1 μmol of lactoferrin", "setting": "lactoferrin [2]; Vitamin B12 added 10 μmol", "value": 4.2, "unit": "µmol"},
      {"measurement": "Amount of vitamin B12 held per 1 μmol of lactoferrin", "setting": "lactoferrin [2]; Vitamin B12 added 100 μmol", "value": 41, "unit": "µmol"},
      {"measurement": "Amount of vitamin B12 held per 1 μmol of lactoferrin", "setting": "lactoferrin [2]; Vitamin B12 added 500 μmol", "value": 130, "unit": "µmol"},
      {"measurement": "Maximal amount of vitamin B12 carried", "setting": "lactoferrin [2]; maximally", "value": "about 100 molecules per one molecule of lactoferrin"}
    ]},
    {"molecule": "Nc1nc2ncc(CNc3ccc(C(=O)N[C@@H](CCC(=O)O)C(=O)O)cc3)nc2c(=O)[nH]1", "note": "[Folic acid]", "values": [
      {"measurement": "Folic acid lost", "setting": "[3]; cow's milk, heat sterilization or during storage", "value": "about 60%"},
      {"measurement": "Folic acid lost", "setting": "[3]; powdered milk", "value": 25, "unit": "%"},
      {"measurement": "Folic acid", "setting": "[4]; Before heat pasteurization, citric acid buffer pH 2.5", "value": 0.28, "unit": "μmol/10 ml"},
      {"measurement": "Folic acid", "setting": "[4]; Immediately after heat pasteurization (90 C, 30 min), pH 2.5", "value": 0.18, "unit": "μmol/10 ml"},
      {"measurement": "Folic acid", "setting": "[4]; Stored for 2 months at 37 C, pH 2.5", "value": 0.05, "unit": "μmol/10 ml"},
      {"measurement": "Folic acid", "setting": "[4]; Stored for 4 months at 37 C, pH 2.5", "value": 0.01, "unit": "μmol/10 ml"},
      {"measurement": "Appearance of solution", "setting": "[5]; [8]", "value": "Slightly turbid"},
      {"measurement": "Turbidity at 660 nm", "setting": "[5]; [8]", "value": 0.01},
      {"measurement": "Appearance of solution", "setting": "[5]; [9]", "value": "Insoluble"},
      {"measurement": "Turbidity at 660 nm", "setting": "[5]; [9]", "value": 0.025},
      {"measurement": "Appearance of solution", "setting": "[5]; [10]", "value": "Insoluble"},
      {"measurement": "Turbidity at 660 nm", "setting": "[5]; [10]", "value": 0.034},
      {"measurement": "Solubility of folic acid in deionized water", "setting": "[5]; deionized water", "value": "less than 0.1 μmol/10 ml"},
      {"measurement": "Amount of folic acid held per 1 μmol of lactoferrin", "setting": "lactoferrin [6]; Folic acid added 10 μmol", "value": 9.3, "unit": "µmol"},
      {"measurement": "Amount of folic acid held per 1 μmol of lactoferrin", "setting": "lactoferrin [6]; Folic acid added 50 μmol", "value": 40, "unit": "µmol"},
      {"measurement": "Amount of folic acid held per 1 μmol of lactoferrin", "setting": "lactoferrin [6]; Folic acid added 100 μmol", "value": 79, "unit": "µmol"},
      {"measurement": "Amount of folic acid held per 1 μmol of lactoferrin", "setting": "lactoferrin [6]; Folic acid added 200 μmol", "value": 160, "unit": "µmol"},
      {"measurement": "Amount of folic acid held per 1 μmol of lactoferrin", "setting": "lactoferrin [6]; Folic acid added 300 μmol", "value": 210, "unit": "µmol"},
      {"measurement": "Maximal amount of folic acid incorporated", "setting": "lactoferrin [6]; maximally", "value": "about 200 molecules per one molecule of lactoferrin"},
      {"measurement": "Folic acid", "setting": "[7]; Radiation time 0 min", "value": 0.16, "unit": "μmol/10 ml"},
      {"measurement": "Folic acid", "setting": "[7]; Radiation time 0.5 min", "value": 0.13, "unit": "μmol/10 ml"},
      {"measurement": "Folic acid", "setting": "[7]; Radiation time 7 min", "value": 0.03, "unit": "μmol/10 ml"}
    ]}
  ]
}
